The source of these data is patent publication US11242361B2 (Proteostasis Therapeutics, Inc., priority 2013, dated 2022).

The target of the test is USP14 (Homo sapiens (Human), UniProt P54578). The test can be described thus: USP14 Inhibition Assay. The format is biochemical. The following applies: average value from a minimum of two experimental determinations, read-out: IC50 Category. How it is done:
Example 17: USP14 Inhibition Assay
“I” in the Table below designates an IC50 of >5 μM, “II” in the Table below designates and IC50 between 0.5 and 5 μM, and “III” designates an IC50<0.5 μM. The IC50 values in the Table below represent the average value from a minimum of two experimental determinations.

Sequence of USP14 (P54578 whole entry, looked up): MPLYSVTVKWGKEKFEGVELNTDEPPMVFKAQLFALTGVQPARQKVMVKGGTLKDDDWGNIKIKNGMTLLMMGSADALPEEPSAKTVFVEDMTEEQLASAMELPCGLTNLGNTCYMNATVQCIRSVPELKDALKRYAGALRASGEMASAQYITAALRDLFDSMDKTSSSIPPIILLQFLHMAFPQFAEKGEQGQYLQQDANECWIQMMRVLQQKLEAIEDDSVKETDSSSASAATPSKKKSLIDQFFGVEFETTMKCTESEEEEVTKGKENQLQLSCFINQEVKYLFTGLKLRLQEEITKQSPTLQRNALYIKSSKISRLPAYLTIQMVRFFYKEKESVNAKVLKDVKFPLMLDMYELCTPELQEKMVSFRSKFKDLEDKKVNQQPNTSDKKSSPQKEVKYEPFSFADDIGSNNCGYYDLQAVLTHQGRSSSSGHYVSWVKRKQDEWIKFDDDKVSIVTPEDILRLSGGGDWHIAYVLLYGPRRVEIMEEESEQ

`Cc1c(C(=O)CN2CCCCC2)c2ncccc2n1-c1ccc(C#N)cc1` [Compound 162, 4-(2-Methyl-3-(2-(piperidin-1-yl)acetyl)-1H-pyrrolo[3,2-b]pyridin-1-yl)benzonitrile]: the IC50 is less than 500 nM.

As for `Cc1c(C(=O)CN2CCCCC2)c2cc(N)ccc2n1-c1ccc(C#N)cc1` [Compound 186, 4-(5-Amino-2-methyl-3-(2-(piperidin-1-yl)acetyl)-1H-indol-1-yl)benzonitrile], the IC50 was less than 500 nM.

As for `COc1cccc2c(C(=O)CN3CCCCC3)c(C)n(-c3ccc(C#N)cc3)c12` [Compound 146], the concentration for half-maximal inhibition (IC50) lay within 500 to 5000 nM.

Regarding `Cc1c(C(=O)CN2CC3(CCC3)C2)c2ncc(Br)cc2n1-c1ccc(C#N)cc1` [Compound 359], the half-inhibitory concentration (IC50) is greater than 5000 nM.

Consider `O=C(CN1CCCCC1)c1c(O)n(-c2ccc(Cl)cc2)c2ccccc12` [Compound 131, 1-(1-(4-Chlorophenyl)-2-hydroxy-1H-indol-3-yl)-2-(piperidin-1-yl)ethan-1-one], for which the IC50 is greater than 5000 nM.

In the case of `Cc1cnc2c(C(=O)CN3CCCCC3)c(C)n(-c3ccc(C#N)cc3)c2c1` [Compound 184, 4-(2,6-Dimethyl-3-(2-(piperidin-1-yl)acetyl)-1H-pyrrolo[3,2-b]pyridin-1-yl)benzonitrile], the IC50 was less than 500 nM.

As to `Cc1c(C(=O)CN2CCCCC2)c2nc(-n3nccn3)ccc2n1-c1ccc(C#N)cc1` [Compound 208, 4-(2-Methyl-3-(2-(piperidin-1-yl)acetyl)-5-(2H-1,2,3-triazol-2-yl)-1H-pyrrolo[3,2-b]pyridin-1-yl)benzonitrile], the half-maximal inhibitory concentration (IC50) is less than 500 nM.

`Cc1c(C(=O)CN2CCCCC2)c2cc([N+](=O)[O-])ccc2n1-c1ccc(Cl)cc1` [Compound 150]: the concentration for half-maximal inhibition (IC50) is 500 to 5000 nM.

Turning to `Cc1c(C(=O)CN2CCCCC2)c2cc(F)ccc2n1-c1ccc(Cl)cc1` [Compound 98], the IC50 is less than 500 nM.

Take `Cc1c(C(=O)CN2CCCCC2)c2ccc(F)cc2n1-c1ccc(C#N)cc1` [Compound 176]: the half-maximal inhibitory concentration (IC50) was less than 500 nM.

With `Cc1c(C(=O)CN2CCCCC2)c2ccc(CN3C(=O)c4ccccc4C3=O)cc2n1-c1ccc(Cl)cc1` [Compound 152, 2-((1-(4-Chlorophenyl)-2-methyl-3-(2-(piperidin-1-yl)acetyl)-1H-indol-6-yl)methyl)isoindoline-1,3-dione], the IC50 fell in the range of 500 to 5000 nM.

`Cc1c(C(=O)CN2CCC(CNCC(=O)O)CC2)c2ncc(Br)cc2n1-c1ccc(Cl)cc1` [Compound 386]: the IC50 was greater than 5000 nM.

Regarding `Cc1c(C(=O)CN2CCCC[C@@H]2C)c2ncc(Br)cc2n1-c1ccc(C#N)cc1` [Compound 308], the concentration for half-maximal inhibition (IC50) was less than 500 nM.

Regarding `Cc1c(C(=O)CN2CCCCC2)c2nc(F)ccc2n1-c1ccc(C#N)cc1` [Compound 165], the IC50 is less than 500 nM.

As to `Cc1[nH]c2cccnc2c1C(=O)CN1CCCCC1` [Compound 128, 1-(2-Methyl-1H-pyrrolo[3,2-b]pyridin-3-yl)-2-(piperidin-1-yl)ethan-1-one], the half-maximal inhibitory concentration (IC50) was greater than 5000 nM.

`CCOc1cnc2c(C(=O)CN3CCC(O)CC3)c(C)n(-c3ccc(C#N)cc3)c2c1` [Compound 340]: the IC50 is less than 500 nM.

Take `Cc1c(C(=O)CN2CCC(O)(C(F)(F)F)CC2)c2ccccc2n1-c1ccc(Cl)cc1` [Compound 390]: the IC50 was greater than 5000 nM.

Take `COC(CNC(=O)CCc1cnc2c(C(=O)CN3CCCCC3)c(C)n(-c3ccc(C#N)cc3)c2c1)OC` [Compound 296]: the half-inhibitory concentration (IC50) is less than 500 nM.

Take `Cc1c(C(=O)CN2CCN(C)CC2)c2ncc(Br)cc2n1-c1ccc(C#N)cc1` [Compound 330]: the IC50 was greater than 5000 nM.

Turning to `COc1ccc2c(c1)c(C(=O)CN1CCCCC1)c(C)n2-c1ccc(Cl)cc1` [Compound 155], the IC50 is less than 500 nM.

As for `Cc1c(C(=O)CN2CC[C@H](O)[C@H](O)C2)c2ncc(Br)cc2n1-c1ccc(C#N)cc1` [Compound 332], the half-inhibitory concentration (IC50) is less than 500 nM.

As to `CN(C)c1c(C(=O)CN2CCCCC2)c2ccccc2n1-c1ccc(Cl)cc1` [Compound 192], the half-inhibitory concentration (IC50) was greater than 5000 nM.

As to `Cc1c(C(=O)CN2CCC(O)CC2)c2ncc(/C=C/c3nnc(C(F)(F)F)o3)cc2n1-c1ccc(C#N)cc1` [Compound 321], the IC50 was less than 500 nM.

As to `Cc1c(C(=O)CN2C[C@@H](C)C[C@H](C)C2)c2ncc(Br)cc2n1-c1ccc(C#N)cc1` [Compound 349], the IC50 is less than 500 nM.

As for `COc1cnc2c(C(=O)CN3CCC(O)CC3)c(C)n(-c3ccc(C#N)cc3)c2c1` [Compound 339], the IC50 was less than 500 nM.

Consider `CCN(C)C(=O)Cc1cnc2c(C(=O)CN3CCCCC3)c(C)n(-c3ccc(C#N)cc3)c2c1` [Compound 382, 2-(1-(4-Cyanophenyl)-2-methyl-3-(2-(piperidin-1-yl)acetyl)-1H-pyrrolo[3,2-b]pyridin-6-yl)-N-ethyl-N-methylacetamide], for which the half-inhibitory concentration (IC50) was less than 500 nM.

In the case of `Cc1c(C(=O)CN2CCCCO2)c2ncc(Br)cc2n1-c1ccc(C#N)cc1` [Compound 345], the 50% inhibitory concentration (IC50) is greater than 5000 nM.

In the case of `Cc1c(C(=O)CN2CCCCC2)c2ccccc2n1-c1ccc(Cl)cc1` [Compound 87], the half-maximal inhibitory concentration (IC50) was less than 500 nM.

Regarding `Cc1c(C(=O)CC2CCCCC2)c2ncccc2n1-c1ccc(C#N)cc1` [Compound 116], the IC50 was greater than 5000 nM.

As for `CCN(CC)C(=O)CCc1cc2c(nc1C)c(C(=O)CN1CCCCC1)c(C)n2-c1ccc(C#N)cc1` [Compound 204, 3-(1-(4-Cyanophenyl)-2,5-dimethyl-3-(2-(piperidin-1-yl)acetyl)-1H-pyrrolo[3,2-b]pyridin-6-yl)-N,N-diethylpropanamide], the concentration for half-maximal inhibition (IC50) was less than 500 nM.

Consider `Cc1c(C(=O)CN2CCCCC2)c2cccc(F)c2n1-c1ccc(C#N)cc1` [Compound 170], for which the IC50 is less than 500 nM.

For `Cc1c(C(=O)CN2CCCCC2)c2ncc(Br)cc2n1-c1ccc(C#N)cc1` [Compound 297, 4-(6-Bromo-2-methyl-3-(2-(piperidin-1-yl)acetyl)-1H-pyrrolo[3,2-b]pyridin-1-yl)benzonitrile], the IC50 was less than 500 nM.

As for `Cc1nc2c(C(=O)CN3CCCCC3)c(C)n(-c3ccc(C#N)cc3)c2cc1CCC(N)=O` [Compound 210, 3-(1-(4-Cyanophenyl)-2,5-dimethyl-3-(2-(piperidin-1-yl)acetyl)-1H-pyrrolo[3,2-b]pyridin-6-yl)propanamide], the IC50 was less than 500 nM.

Consider `Cc1c(C(=O)CN2CC[C@H](O)[C@@H](O)C2)c2ncc(Br)cc2n1-c1ccc(C#N)cc1` [Compound 328], for which the IC50 is greater than 5000 nM.

As to `[2H]C1([2H])N(CC(=O)c2c(C)n(-c3ccc(C#N)cc3)c3cc(Br)cnc23)C([2H])([2H])C([2H])([2H])C([2H])([2H])C1([2H])[2H]` [Compound 320], the IC50 is less than 500 nM.

On to `Cc1c(C(=O)CN2CCCC2(C)C)c2ncc(Br)cc2n1-c1ccc(C#N)cc1` [Compound 310], for which the half-inhibitory concentration (IC50) is less than 500 nM.

In the case of `Cc1c(C(=O)CN2CCCCC2)c2ncccc2n1-c1ccc(Cl)cc1` [Compound 161], the IC50 is less than 500 nM.

Regarding `Cc1c(C(=O)CN2CC[C@H](O)[C@H](O)C2)c2ncc(Br)cc2n1-c1ccc(C#N)cc1` [Compound 356], the IC50 was less than 500 nM.

`Cc1c(C(=O)CN2CCCCC2)c2ccccc2n1-c1ccc(C(N)=O)cc1` [Compound 108]: the half-inhibitory concentration (IC50) was greater than 5000 nM.

In the case of `COC1CCN(CC(=O)c2c(C)n(-c3ccc(C#N)cc3)c3cc(Br)cnc23)CC1` [Compound 311], the IC50 is less than 500 nM.

`COc1c(C(=O)CN2CCCCC2)c2ccccc2n1-c1ccc(Cl)cc1` [Compound 132, 1-(1-(4-Chlorophenyl)-2-methoxy-1H-indol-3-yl)-2-(piperidin-1-yl)ethan-1-one]: the IC50 was greater than 5000 nM.

As for `Cc1c(C(=O)CN2CC[C@@H](O)[C@@H](O)C2)c2ncc(Br)cc2n1-c1ccc(C#N)cc1` [Compound 355], the half-inhibitory concentration (IC50) was less than 500 nM.

Take `Cc1c(C(=O)CN2CCC(O)CC2)c2ccccc2n1-c1ccc(C#N)cc1` [Compound 337]: the IC50 was less than 500 nM.

For the compound `Cc1ccc2c(C(=O)CN3CCCCC3)c(C)n(-c3ccc(C#N)cc3)c2c1` [Compound 169, 4-(2,6-Dimethyl-3-(2-(piperidin-1-yl)acetyl)-1H-indol-1-yl)benzonitrile], the IC50 was less than 500 nM.

Take `CCOC(=O)CC1CCCN(CC(=O)c2c(C)n(-c3ccc(C#N)cc3)c3cc(Br)cnc23)C1` (centres unmarked) [Compound 366]: the IC50 lay within 500 to 5000 nM.

In the case of `Cc1c(C(=O)CN2CCCCC2)c2cc(NC(=O)C(C)(C)C)ccc2n1-c1ccc(C#N)cc1` [Compound 187, N-(1-(4-Cyanophenyl)-2-methyl-3-(2-(piperidin-1-yl)acetyl)-1H-indol-5-yl)pivalamide], the IC50 is less than 500 nM.

Consider `Cc1c(C(=O)CN2CCC(O)CC2)c2ccccc2n1-c1ccccn1` [Compound 397], for which the IC50 was greater than 5000 nM.

`CC(=O)Nc1ccc2c(c1)c(C(=O)CN1CCCCC1)c(C)n2-c1ccc(C#N)cc1` [Compound 191, N-(1-(4-Cyanophenyl)-2-methyl-3-(2-(piperidin-1-yl)acetyl)-1H-indol-5-yl)acetamide]: the concentration for half-maximal inhibition (IC50) is less than 500 nM.

On to `Cc1c(C(=O)CN2CCC(O)CC2)c2ncc(CCC(=O)NCCCC#N)cc2n1-c1ccc(C#N)cc1` [Compound 362], for which the 50% inhibitory concentration (IC50) is less than 500 nM.

With `Cc1c(C(=O)CN2CCCCC2)c2ncc(C(F)(F)F)cc2n1-c1ccc(C#N)cc1` [Compound 300], the IC50 is less than 500 nM.

For `Cc1c(C(=O)CN2CCCCC2)c2ncc(C#CCOC(=O)N(C)C)cc2n1-c1ccc(C#N)cc1` [Compound 319, 3-(1-(4-Cyanophenyl)-2-methyl-3-(2-(piperidin-1-yl)acetyl)-1H-pyrrolo[3,2-b]pyridin-6-yl)prop-2-yn-1-yl Dimethylcarbamate], the IC50 was less than 500 nM.

For `Cc1c(C(=O)CN2C[C@H](C)C[C@H](C)C2)c2ncc(Br)cc2n1-c1ccc(C#N)cc1` [Compound 338], the IC50 was greater than 5000 nM.

On to `Cc1c(C(=O)CN2CCCCC2)c2ccc(CO)cc2n1-c1ccc(Cl)cc1` [Compound 182, 1-(1-(4-Chlorophenyl)-6-(hydroxymethyl)-2-methyl-1H-indol-3-yl)-2-(piperidin-1-yl)ethan-1-one], for which the half-inhibitory concentration (IC50) is less than 500 nM.
